IC50 and inhibition data for 22 compounds are collected here from the Kinase Knowledgebase extract (Sharma et al. 2016).

EGFR (human), sequence (P00533 whole entry, looked up): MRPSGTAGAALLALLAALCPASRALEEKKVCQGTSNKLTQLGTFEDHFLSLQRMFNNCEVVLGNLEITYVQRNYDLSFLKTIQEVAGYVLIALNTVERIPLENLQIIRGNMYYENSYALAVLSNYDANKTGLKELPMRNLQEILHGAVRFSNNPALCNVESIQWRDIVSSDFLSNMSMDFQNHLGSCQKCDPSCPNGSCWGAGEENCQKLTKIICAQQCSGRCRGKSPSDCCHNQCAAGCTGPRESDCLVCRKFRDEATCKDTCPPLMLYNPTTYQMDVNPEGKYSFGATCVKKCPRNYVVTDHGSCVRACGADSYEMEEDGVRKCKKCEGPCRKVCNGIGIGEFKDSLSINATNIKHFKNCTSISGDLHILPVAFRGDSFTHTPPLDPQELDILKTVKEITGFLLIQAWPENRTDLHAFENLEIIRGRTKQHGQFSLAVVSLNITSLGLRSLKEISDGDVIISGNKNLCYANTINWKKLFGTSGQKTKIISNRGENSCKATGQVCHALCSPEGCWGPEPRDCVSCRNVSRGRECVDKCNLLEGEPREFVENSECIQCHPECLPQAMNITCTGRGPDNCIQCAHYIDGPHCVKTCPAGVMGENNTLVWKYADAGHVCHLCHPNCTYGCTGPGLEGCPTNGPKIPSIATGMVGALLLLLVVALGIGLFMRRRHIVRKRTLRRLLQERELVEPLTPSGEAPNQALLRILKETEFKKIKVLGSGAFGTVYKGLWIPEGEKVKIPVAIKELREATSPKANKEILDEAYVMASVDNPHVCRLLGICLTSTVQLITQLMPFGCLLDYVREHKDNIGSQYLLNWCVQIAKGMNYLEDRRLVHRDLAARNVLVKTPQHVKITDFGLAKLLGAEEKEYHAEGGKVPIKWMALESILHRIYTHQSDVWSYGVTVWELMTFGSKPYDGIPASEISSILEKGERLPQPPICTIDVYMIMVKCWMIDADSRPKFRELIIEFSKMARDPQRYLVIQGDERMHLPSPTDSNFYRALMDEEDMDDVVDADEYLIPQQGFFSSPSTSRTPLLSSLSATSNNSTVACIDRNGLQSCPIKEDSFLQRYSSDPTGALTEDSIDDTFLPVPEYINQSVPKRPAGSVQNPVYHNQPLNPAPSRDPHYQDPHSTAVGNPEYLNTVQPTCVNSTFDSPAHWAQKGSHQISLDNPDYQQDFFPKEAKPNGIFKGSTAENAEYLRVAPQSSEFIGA

The first experiment addresses EGFR (human) (UniProt P00533). The following applies: A431.
Regarding `N#C/C(=C\c1cc(-c2ccccc2)c(O)c(-c2ccccc2)c1)C(N)=O`, the IC50 came to 0.37 µM.
In the case of `CC(C)(C)c1cc(/C=C(\C#N)C(N)=O)cc(C(C)(C)C)c1O`, the IC50 is 46 µM.
Compound `CC(C)c1cc(CC(C#N)C(N)=O)cc(C(C)C)c1O` (stereo unspecified) showed a concentration for half-maximal inhibition (IC50) of 9.8 µM.
`CCOc1cc(/C=C(\C#N)C(N)=O)cc(CSc2ccc(O)cc2)c1O` yielded an IC50 of 2.8 µM.
`N#C/C(=C\c1cc(Cc2ccccc2)c(O)c(Cc2ccccc2)c1)C(N)=O` gave an IC50 of 0.6 µM.
The same measure, in the same setting: the value for `CCOc1cc(/C=C(\C#N)C(N)=O)cc(CSc2ccccc2)c1O` was 0.37 µM; that for `N#C/C(=C\c1cc(CSc2ccccc2)c(O)c(OCc2ccccc2)c1)C(N)=O` was 0.75 µM.
On the same count and under the same terms, the result for `CCOc1cc(/C=C(\C#N)C(N)=O)cc(CSc2cccc(OC)c2)c1O` reads 4 µM; that for `CCOc1cc(/C=C(\C#N)C(N)=O)cc(CSc2c(F)c(F)c(F)c(F)c2F)c1O`, 3 µM.
Same read-out and setting: the result for `CC(C)c1cc(/C=C(\C#N)C(N)=O)cc(C(C)C)c1O` reads 1.1 µM; that for `CCOc1cc(/C=C(\C#N)C(N)=O)cc(CSc2ccc(C)cc2)c1O`, 2.2 µM; that for `COc1cc(/C=C(\C#N)C(N)=O)cc(CSc2ccccc2)c1O`, 0.53 µM.

The experiment is the same for the next values; noted with them: A431; concentration not given here.
`CCOc1cc(/C=C(\C#N)C(N)=O)cc(CSc2ccccc2)c1OC(=O)c1ccccc1` returned an inhibition of 20%.
The compound `CCOc1cc(/C=C(\C#N)C(N)=O)cc(CSc2cccc(Cl)c2)c1O` displayed an inhibition of 0%.
Turning to `CCOc1cc(/C=C(\C#N)C(N)=O)cc(CSc2ccccc2OC)c1O`, the inhibition was 0%.
Turning to `CCOc1cc(/C=C(\C#N)C(N)=O)cc(CSc2ccc(O)cc2)c1O`, the inhibition was 30%.
In turn, `CCOc1cc(/C=C(\C#N)C(N)=O)cc(CSc2ccc([N+](=O)[O-])cc2)c1O` had an inhibition of 0%.
For the compound `CCOc1cc(/C=C(\C#N)C(N)=O)cc(CSc2ccccc2)c1OC`, the inhibition came out at 18%.
On to `CCOc1cc(/C=C(\C#N)C(N)=O)cc(CSc2ccc(Cl)c(Cl)c2)c1O`, for which the inhibition worked out at 0%.
For `CCOc1cc(/C=C(\C#N)C(N)=O)cc(CSc2ccccc2)c1OC(C)=O`, the inhibition is 24%.
For the compound `CCOc1cc(/C=C(\C#N)C(N)=O)cc(CSc2cccc(OC)c2)c1O`, the inhibition turned out to be 17%.
Same read-out and setting: the result for `CCOc1cc(/C=C(\C#N)C(N)=O)cc(CSc2ccc(C(C)(C)C)cc2)c1O` reads 0%.
On the same count and under the same terms, the value for `CCOc1cc(/C=C(\C#N)C(N)=O)cc(CSc2c(F)c(F)c(F)c(F)c2F)c1O` was 41%; that for `CCOc1cc(/C=C(\C#N)C(N)=O)cc(CSc2ccc(C)cc2)c1O` was 47%.
On to `CCOc1cc(/C=C(\C#N)C(N)=O)cc(CSc2ccc(Br)cc2)c1O`, for which the inhibition came out at 0%.
For the compound `CCOc1cc(/C=C(\C#N)C(N)=O)cc(COc2ccccc2)c1O`, the inhibition was determined as 18%.
